melting point [°C] | Structure (SMILES)
62.5 to 65.5 | CN1c2ccccc2CC1COc1ccc(CC2SC(=O)N(C(c3ccccc3)(c3ccccc3)c3ccccc3)C2=O)cc1 (stereo not drawn)
241 | N#Cc1c(Cl)csc1NC=O
138 to 140 | COc1ccc2c3c(c(=O)oc2c1OC)CN(Cc1ccccc1)CC3
97 to 100 | C=C(C)COc1ccc(C(=O)C=Cc2cccc(OC)c2)c(O)c1
179 to 180 | COc1cc(C=O)ccc1OCc1nc(-c2cccc([N+](=O)[O-])c2)oc1C
119 | O=S1(=O)NCCN(C2CC2)c2ccc(Oc3ccccc3)cc21
230 to 231 | CN1CCC(NC(=O)C2c3ccccc3NC(=O)c3ccccc32)CC1 (stereo not drawn)
43 to 45 | CCC(=O)c1c(OC)cccc1OC
83 | C#CCN1CCCc2ccc(OC(=O)Nc3ccccc3OC)cc21
70 to 71 | COC(=O)c1ccc(-c2ccncc2)c(C)c1
78 to 81 | O=C1C2=C(C=CCN2)CCc2ccc(F)cc21
63 to 65 | COc1cc(C(C)=O)cc(N)c1OC
187 to 189 | COCc1c(C(=O)OC(C)C)ncc2[nH]c3cccc(Cc4ccccc4Cl)c3c12
261 to 265 | CCCn1c(=O)c2[nH]c(-c3cc(C)n(CC(=O)Nc4ccc(Cl)cc4)n3)nc2n(CCC)c1=O
250 | CCc1nnc(-c2ccc(NC=O)cc2)n1-c1ccccc1OC
95 to 96 | CCCCCCNC(=S)NC(=O)c1ccc(C#N)cc1
180 to 181 | CC(C)(C)c1ccc(C(NC(=O)c2c(F)cccc2Cl)N2CCOCC2)cc1 (stereo not drawn)
258 to 261 | CCCc1nc2cc3c(cc2[nH]1)NC(=O)C3(C)C(=O)OCC (stereo not drawn)
183 to 185 | COCc1nc(N)nc(N)c1-c1ccc(Cl)cc1Cl
144 to 147 | OC(Cn1cncn1)(c1ccc(F)cc1F)C(c1ccc(OCc2ccccc2)cc1)n1cncn1 (stereo not drawn)
200 | CCCC1=C(C#N)S(=O)(=O)c2ccc(C(F)(F)F)cc2N1
248 to 249 | COc1ccc(Cc2ccc3[nH]c4cnn(C)c4c(=O)c3c2)cc1
247 | N#Cc1cccc(C2=Nc3ccc(-c4cc(F)ccc4F)cc3NC(=O)C2)c1
81 to 83 | CN(C)c1c(-c2ccc(Cl)cc2)sc2ccccc12

melting point [°C] | Structure (SMILES)
256 to 257 | O=c1[nH]c(=Cc2ccco2)c(=O)[nH]c1=Cc1ccc(OCc2ccccc2)cn1
106 to 108 | O=C(NCC1CCCCCC1)NCC1CCCCCC1
> 290 | COc1cc(-c2nc(N(C)CCN)c3c(C)c(C#N)sc3n2)cc(OC)c1OC
44 to 46 | CCCCCCCCNC(=O)Oc1ccc(Oc2ccccc2)cc1
255 to 262 | Cc1cc2[nH]nnc2c(Br)c1C
156 to 158 | CCCc1c(OCCCOc2ccc(-c3cc[nH]n3)c(OC)c2CCC)ccc2c1OC(C(=O)O)CC2 (stereo not drawn)
242 to 243 | CCCCCCc1sc(C(=O)O)c2c1-c1c(cnn1C)CC2
226 to 229 | CON=Cc1ccc(N2C(=O)C(O)=C(C(=O)c3ccc(OC)cc3)C2c2ccccc2)cc1 (stereo not drawn)
97 to 100 | C#Cc1ccc2c(C(=O)c3ccc(OCCN4CCCCC4)cc3)c(-c3ccc(O)cc3)sc2c1
194 to 196 | COc1ccc(CNc2nc(OCc3ccccn3)ncc2C(=O)c2cc(OC)c(OC)c(OC)c2)cc1NC(C)=O
201 to 204 | COc1ccc2cnc(=O)[nH]c2c1C1CCCC1
146 to 148 | Nc1cc(Br)cnc1CCCCNc1ncc(Cc2ccc(F)cc2)c(=O)[nH]1
167 to 168 | CC(C)Cn1c(=O)n(C)c(=O)c2c(Sc3nccs3)c(C(=O)c3ccnc4ccccc34)sc21
191 to 192 | Cn1cnc(COc2nn3c(-c4ccon4)nnc3c3ccccc23)c1
42 to 43 | CCOC(=O)CCc1cc2c(c(Br)c1Br)OCC2
96 | CCOC(=O)c1ccc(C(C)=Cc2ccc3ccccc3c2)cc1
135 to 137 | N#Cn1nc(-c2ccccc2)c(=O)cc1I
240 to 242 | Cc1ccc(NC(=S)NCc2ccc3c(c2)CN(C2CCC(=O)NC2=O)C3=O)cc1Cl (stereo not drawn)
119 to 120 | CC1c2ccccc2C=Cn2c1n[nH]c2=O (stereo not drawn)
135 to 137 | O=C(O)COc1ccc2c(c1)Cc1sc(SCCC(c3ccccc3)c3ccccc3)nc1-2
75 to 85 | CCN(CC)CCN1C(=O)c2ccc(NC(C)=O)cc2Oc2cc(C(F)(F)F)ccc21
86 to 88 | O=C(O)CCC/C=C\CN1C(=O)c2ccccc2C1=O
161 to 163 | Cn1c(C(F)(F)F)cc(Cl)c(-c2ccc(Cl)c(NS(C)(=O)=O)c2)c1=O
291 to 293 | COc1cc(OC)c2c(=O)[nH]c(-c3cc(C)c(O)c(C)c3)nc2c1

melting point [°C] | Structure (SMILES)
151 | Cc1cc(Cl)cc(OC2=NS(=O)(=O)CS2)c1
230 | C[C@@H]1CN(CC=CC(=O)Nc2cc3c(Nc4ccc(F)c(Cl)c4)ncnc3cc2O[C@@H]2CCOC2)CC(=O)O1
206 to 207 | Clc1nc(NCCCCC=C(c2ccccc2)c2ccccc2)c2nc[nH]c2n1
90 to 91 | CCOC(=O)c1cc2cc(OCCOC)cc([N+](=O)[O-])c2[nH]1
79 to 81.5 | CNC(=NC#N)NCCSCc1ccc(CN(C)C)o1
193 to 195 | O=C(C=Cc1cccc(F)c1F)c1cnc2sc3c(n12)CCCCC3
160 | CC1(C)CCC(C)(C)c2cc(-c3cc(-c4ccc(C(=O)O)cc4)ccc3OCCCCNC3CC3)ccc21
257 to 258 | NC(=O)Cn1c(=O)ccc2cc(Br)ccc21
210 | CCCCCc1ccc(-c2nc(C)c(C(C)=NNC(=N)N)s2)cc1
158 to 160 | Cc1ccc(N2C(=O)C3=C(CCCC3)C2=O)c2c1OC(C)C2 (stereo not drawn)
213 to 215 | CC1CCc2c(cc(-c3ccccc3)n2-c2ccc(O)c(C(=O)O)c2)C1 (stereo not drawn)
188 to 189 | Cc1ccc2c(n1)sc1c(Cl)nnnc12
246 to 253 | COC(=O)Nc1nc2ccc(Oc3ccccn3)cc2[nH]1
61 to 62 | OC(COc1ccccc1)c1ccccc1 (stereo not drawn)
74 to 77 | CCc1cccc(C)c1N1C(=O)CCN(CC)C1=S
> 300 | O=c1[nH]c2cc(Cl)ccc2c(O)c1SC/C=C\c1ccccc1
134 to 136 | CC(=O)Nc1nc(OCc2cccs2)ncc1F
271 to 273 | CC(=O)c1ccc(-n2c(-c3sc(Nc4ccccc4)nc3C)nc3ccccc3c2=O)cc1
231 | COc1ccc(-c2cncc(OC3SCC(O)C(O)C3O)c2)c(C)c1 (stereo not drawn)
138 to 141 | O=C(Cl)c1cc2ccccc2oc1=O
156 to 157 | COc1cc(Cl)c2nc(-c3ccc(OC)c(F)c3)cc(Br)c2c1
106 to 108 | O=C1c2ccccc2C(=O)N1CCCCSc1ccncc1
75 to 76 | Cc1c(C)c2c(c(C)c1N)OC(C)(C)C2Cc1ccccc1 (stereo not drawn)
175 | O=C1c2ccccc2CN1CCN1CCC(Cc2c[nH]c3ccc(F)cc23)CC1

Structure (SMILES) | melting point [°C]
COc1ccc2c(c1)N1CCOCC1CN=C2c1ccco1 (stereo not drawn) | 130 to 132

From a melting point compilation (Tetko et al.; mined from patent text by program, amines drawn as free bases though some values may be those of a salt)
